Source: patent publication US12214079B2, “Micronized lipids” (MCAL Therapeutics Inc., priority 2021, dated 2025)
In brackets after ≈: the same amount, converted by molar mass. Entries after “also recorded” stand apart in the source; their conditions may differ. Where two headings read alike, the source gives them in different places.

Key:
naive dogs = experiment: Non-GLP topical ocular dose range-finding toxicity and tolerability study (SPOTS scoring); format: in vivo; conditions: up to 10 mg/mL OU BID for 48 hours
Method: A non-GLP topical ocular administration dose range-finding pharmacology and toxicity study of MCAL-201 was conducted in naive dogs. The primary study objective was to assess the tolerability of topical ocular administration of MCAL-201 in dogs with a secondary objective to obtain data supporting pharmacological activity in healthy dogs.
The effects of vehicle and 0.1, 0.5, 1, 3 and 10 mg/mL MCAL-201 delivered as a 35 μL drop bilaterally QD (0.0035, 0.0175, 0.035, 0.105 and 0.35 mg/eye/day) were evaluated in Part I. The dosing regimen is summarized in 3.
(§1) Scoring of the ocular surface and anterior segment of the eye was performed using the SPOTS system by a board-certified veterinary ophthalmologist. SPOTS was performed for each concentration evaluated. To measure TBUT, fluorescein was instilled in the eye and the eye was manually closed and then gently opened to simulate a blink. The time interval between the opening of the eye and the first sign of disruption of the uniform tear film, as indicated by breaks in the fluorescein was recorded in seconds. The procedure was repeated three times on both eyes, first right than left eye. After BID dosing with 10 mg/mL MCAL-201, SPOTS was also performed at 48 hours after the last dose.

[1] = General and physiochemical properties of MCAL-201 (solubility, hygroscopicity); format: physicochemical
Method: The general and physiochemical properties of MCAL-201 are: • 1,2-EPRG has a molecular weight of 611.05 g/mol • Empirical formula: C39H78O4 • Appearance: White powder • Particle size: 1-10 μm (post micronization) • Hygroscopicity: Low • Chirality: Racemic • Enantiomeric excess: 0 • Melting point: 57° C. • Solubility: Insoluble in water. Soluble in chloroform (40 mg/mL) and castor • oil (25 mg/mL)
However, preparation of a water soluble cyclodextrin inclusion complex of MCAL-201 was used in nonclinical efficacy studies. In addition, solutions of MCAL-201 in castor oil which can be emulsified to micron sized liquid particles in aqueous buffers can be used to deliver MCAL-201 directly to the tear film lipid layer.

healthy dogs = experiment: Tear film break-up time (TBUT) by fluorescein after topical ocular administration; format: in vivo, dog; conditions: 5 healthy adult dogs
Method: as §1

[2] = Isomeric stability (1,2-EPRG to 1,3-EPRG acyl migration), NMR analysis of isomeric content; format: physicochemical
From the text: FIG. 4 provides NMR (nuclear magnetic resonance) spectral analysis of 1,3-EPRG and 1,2-EPRG isomeric content (1.15 mol % 1,3-EPRG) of MCAL-201 after jet mill micronization.
FIG. 5 provides NMR (nuclear magnetic resonance) spectral analysis of 1,3-EPRG and 1,2-EPRG isomeric content (0.0991 mol % 1,3-EPRG) of MCAL-201 after solid micronized MCAL-201suspension is stored at room temperature for 6 weeks.
This led to development of the delivery of solid MCAL-201 as a suspension of crystalline or amorphous micronized solid particle suspended in a water-based formulation isotonic with tear. Although MCAL-201 crystalline drug substance floated on phosphate buffered saline (PBS) it could be suspended following micronization to 1-10 micron particles which could be stably suspended in PBS with the aid of polysorbate 80 as a wetting agent and xanthan gum to adjust density and viscosity of the drug product.

**Q.** For `CCCCCCCCCCCCCCCCCCCCOCC(CO)OC(=O)CCCCCCCCCCCCCCC` (racemic) [MCAL-201, 1-O-eicosanyl-2-palmitoyl-rac-glycerol], which “Ocular or systemic adverse events” value (naive dogs; any time or concentration evaluated) is on record?
**A.** The value was “no ocular or systemic adverse events”.

**Q.** And the Tolerability (naive dogs; topical ocular 35 μL drop)?
**A.** The Tolerability was “well tolerated”.

**Q.** And the Hygroscopicity [1]?
**A.** Its Hygroscopicity is “Low”.

**Q.** And the solubility ([1]; castor oil, oil or lipid, read-out: Solubility in castor oil)?
**A.** Its solubility is 25 mg/mL (≈ 40.9 mM).

**Q.** And the solubility ([1]; chloroform, organic solvent or mixture, read-out: Solubility in chloroform)?
**A.** The solubility was 40 mg/mL (≈ 65.5 mM).

**Q.** And the Solubility in water ([1]; water)?
**A.** The Solubility in water was “Insoluble; also recorded: extreme insolubility”.

**Q.** And the “Effect on TBUT” value (healthy dogs)?
**A.** The value was “extended TBUT”.

**Q.** And the “1,3-EPRG isomeric content (NMR)” value ([2]; after jet mill micronization)?
**A.** Its value is 1.15 mol %.

**Q.** What about the “Chemical stability (acyl migration of palmitoyl from 2 to 3 position)” value ([2]; liquid solution phase) of the same compound?
**A.** The value was “lacked long-term chemical stability”.

**Q.** And the “Time for which isomeric stability was demonstrated” value ([2]; micronized, in the suspension formulation at room temperature)?
**A.** Its value is 6 weeks.

**Q.** And the “Stability to the micronization process” value ([2]; particles recovered from formulated drug by centrifugation and washing)?
**A.** The value was “chemical and isomeric stability”.

**Q.** What about the “1,3-EPRG isomeric content (NMR)” value ([2]; solid micronized suspension stored at room temperature for 6 weeks) of the same compound?
**A.** Its value is 0.0991 mol %.

**Q.** And the Isomeric stability ([2]; solid phase, compared with solution)?
**A.** The Isomeric stability was “far greater than in solution”.
